Reference: patent US20060183902A1, “Dihydroindolyl methanones as alpha 1a/1d adrenoreceptor modulators for the treatment of benign prostatic hypertrophy and lower urinary tract symptoms” (priority 2005, published 2006)

What was measured:
α1d-AR = target: T1, α1d-AR (Homo sapiens, UniProt P25100); assay: α1-Adrenergic receptor radio-ligand (125I-HEAT) binding assay, α1d subtype; conditions: COS-7 cell membranes transfected with α1d-AR, 125I-HEAT 50 pM; read-out: Receptor Binding, Ki α1d-AR
T1 construct: expressed in transfected cells; host or cells: COS-7
T1 sequence (P25100 1-572): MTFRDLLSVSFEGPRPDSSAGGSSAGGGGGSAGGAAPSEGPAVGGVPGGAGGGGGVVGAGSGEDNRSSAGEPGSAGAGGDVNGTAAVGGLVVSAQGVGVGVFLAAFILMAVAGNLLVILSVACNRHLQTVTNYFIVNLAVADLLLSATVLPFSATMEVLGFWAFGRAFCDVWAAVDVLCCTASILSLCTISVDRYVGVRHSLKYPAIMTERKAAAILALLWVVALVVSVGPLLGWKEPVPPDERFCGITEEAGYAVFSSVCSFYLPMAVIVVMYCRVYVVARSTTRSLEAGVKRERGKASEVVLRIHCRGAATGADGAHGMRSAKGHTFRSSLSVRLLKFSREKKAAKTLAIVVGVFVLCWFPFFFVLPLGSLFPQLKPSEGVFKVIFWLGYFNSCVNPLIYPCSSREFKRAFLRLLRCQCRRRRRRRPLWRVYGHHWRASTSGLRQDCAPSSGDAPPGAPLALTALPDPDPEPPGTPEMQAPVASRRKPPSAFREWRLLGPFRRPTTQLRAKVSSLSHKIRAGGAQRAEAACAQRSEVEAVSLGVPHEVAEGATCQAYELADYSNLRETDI
Outline: (§1)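 Membranes from COS-7 cells transfected with a single α1-AR subtype, incubated 1 h at rt with 50 pM 125I-HEAT and compound (1 pM–10 µM, half-log steps, final) in Tris/EDTA/NaCl pH 7.4. Bound radioactivity collected by GF/C filtration and scintillation counting, triplicates; Ki derived.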

α1a-AR = target: T2, α1a-AR (Homo sapiens, UniProt P35348); assay: α1-Adrenergic receptor radio-ligand (125I-HEAT) binding assay, α1a subtype; conditions: COS-7 cell membranes transfected with α1a-AR, 125I-HEAT 50 pM; read-out: Receptor Binding, Ki α1a-AR
T2 construct: expressed in transfected cells; host or cells: COS-7
T2 sequence (P35348 1-466): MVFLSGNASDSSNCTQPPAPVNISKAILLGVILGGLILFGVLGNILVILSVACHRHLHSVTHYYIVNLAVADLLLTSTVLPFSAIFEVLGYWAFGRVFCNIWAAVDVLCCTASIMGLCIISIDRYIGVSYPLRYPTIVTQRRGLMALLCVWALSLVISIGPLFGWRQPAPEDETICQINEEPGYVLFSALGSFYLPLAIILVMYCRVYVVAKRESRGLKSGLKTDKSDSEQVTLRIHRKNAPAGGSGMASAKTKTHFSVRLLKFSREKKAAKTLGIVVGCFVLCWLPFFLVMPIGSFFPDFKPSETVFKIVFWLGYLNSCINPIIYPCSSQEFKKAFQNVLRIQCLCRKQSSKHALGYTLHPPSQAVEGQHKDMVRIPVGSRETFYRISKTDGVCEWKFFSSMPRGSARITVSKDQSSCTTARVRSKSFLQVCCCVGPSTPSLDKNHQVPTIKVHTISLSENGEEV
Outline: as §1

α1b-AR = target: T3, α1b-AR (Homo sapiens, UniProt P35368); assay: α1-Adrenergic receptor radio-ligand (125I-HEAT) binding assay, α1b subtype; conditions: COS-7 cell membranes transfected with α1b-AR, 125I-HEAT 50 pM; read-out: Receptor Binding, Ki α1b-AR
T3 construct: expressed in transfected cells; host or cells: COS-7
T3 sequence (P35368 1-520): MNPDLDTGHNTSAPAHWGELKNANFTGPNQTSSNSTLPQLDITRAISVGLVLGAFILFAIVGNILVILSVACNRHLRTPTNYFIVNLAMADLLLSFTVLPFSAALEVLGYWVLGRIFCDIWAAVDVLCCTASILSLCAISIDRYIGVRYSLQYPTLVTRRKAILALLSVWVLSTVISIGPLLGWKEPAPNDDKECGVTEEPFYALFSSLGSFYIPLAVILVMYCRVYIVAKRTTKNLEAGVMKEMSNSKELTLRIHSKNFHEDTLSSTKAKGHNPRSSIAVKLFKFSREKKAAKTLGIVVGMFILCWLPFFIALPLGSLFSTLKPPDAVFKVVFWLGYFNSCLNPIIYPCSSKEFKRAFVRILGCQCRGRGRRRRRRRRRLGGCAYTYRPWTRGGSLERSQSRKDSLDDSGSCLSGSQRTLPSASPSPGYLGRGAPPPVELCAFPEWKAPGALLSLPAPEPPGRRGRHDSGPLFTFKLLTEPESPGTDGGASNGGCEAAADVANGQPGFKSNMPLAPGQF
Outline: as §1

[1] = tested on: α1a and α1d subtypes over the α1b subtype; conditions: cited from earlier work
BPH patients = conditions: clinical studies; cited from earlier work
[2] = tested on: normal rats and rats with bladder hypertrophy secondary to outlet obstruction; conditions: intrathecally administered; cited from earlier work

SMILES | melting point | Ki (α1d-AR) | Ki (α1a-AR) | Ki (α1b-AR) | selective for the α1a and α1d subtypes over the α1b subtype [1] | effect on obstructive and irritative symptoms of BPH (BPH patients) | micturition pressure [2]
COc1cccc(OC)c1CNc1ccc2c(c1)CCN2C(=O)c1cccc(CN2CCN(c3ccccc3OC(C)C)CC2)c1 [Cpd 25, [5-(2,6-dimethoxy-benzylamino)-2,3-dihydro-indol-1-yl]-{3-[4-(2-isopropoxy-phenyl)-piperazin-1-ylmethyl]-phenyl}-methanone] | 79 to 81 °C | 18 nM | 67 nM | 1300 nM |  |  | 
COc1cccc(OC)c1C(=O)Nc1ccc2c(c1)CCN2C(=O)c1cccc(CN2CCN(c3ccccc3OC(C)C)CC2)c1 [Cpd 26, N-(1-{3-[4-(2-isopropoxy-phenyl)-piperazin-1-ylmethyl]-benzoyl}-2,3-dihydro-1H-indol-5-yl)-2,6-dimethoxy-benzamide] | 229 to 232 °C | 2 nM | 34 nM | 200 nM |  |  | 
CC(C)Oc1ccccc1N1CCN(Cc2cccc(C(=O)N3CCc4ccc(NS(=O)(=O)c5cccc6c(N(C)C)cccc56)cc43)c2)CC1 [Cpd 32, 5-dimethylamino-naphthalene-1-sulfonic acid (1-{3-[4-(2-isopropoxy-phenyl)-piperazin-1-ylmethyl]-benzoyl}-2,3-dihydro-1H-indol-6-yl)-amide] | 137 to 139 °C | 9.4 nM | 2.7 nM | 610 nM |  |  | 
CCOc1ccccc1OCCN[C@H](C)Cc1ccc(OC)c(S(N)(=O)=O)c1 [Tamsulosin] |  |  |  |  | about 15 fold | improvement in both obstructive and irritative symptoms | 
COc1cc2nc(N3CCN(C(=O)C4COc5ccccc5O4)CC3)nc(N)c2cc1OC (stereo not drawn) [doxazosin] |  |  |  |  |  |  | decrease in micturition pressure
